Measurements taken from ChEMBL document CHEMBL1201862, “PubChem BioAssay data set” (2004).
The source made the active and inactive calls.

Columns and labels:
[1] = tested on: P388/ADR; assay: cells; assay type: functional; settings: Mus musculus
[2] = tested on: SN12K1; assay: cells; assay type: functional; settings: Homo sapiens
[3] = tested on: P388; assay: cells; assay type: functional; settings: Mus musculus
[4] = tested on: H9c2; assay: cells; assay type: functional, cell-based; settings: Rattus norvegicus, H9c2, Myocardium;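 further: confirmatory concentration-response retest of ultra-high-throughput screening hits for modulation of myocardial damage; cell death induced by hydrogen peroxide oxidative stress; compound pretreatment for 60 min then peroxide exposure for 2 h; potency is for protecting the cells against peroxide damage rather than for killing them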
[5] = target: Melanocortin receptor 4 (Homo sapiens, UniProt P32245); assay type: functional, cell-based;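 further: Cell-based assay with luminescence read-out, confirmatory dose-response testing for agonist activity of biased ligands at MC4R; human U2OS cells with tagged receptor and beta-arrestin; potency of agonists that increase receptor coupling to beta-arrestin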
Melanocortin receptor 4, sequence (P32245 whole entry): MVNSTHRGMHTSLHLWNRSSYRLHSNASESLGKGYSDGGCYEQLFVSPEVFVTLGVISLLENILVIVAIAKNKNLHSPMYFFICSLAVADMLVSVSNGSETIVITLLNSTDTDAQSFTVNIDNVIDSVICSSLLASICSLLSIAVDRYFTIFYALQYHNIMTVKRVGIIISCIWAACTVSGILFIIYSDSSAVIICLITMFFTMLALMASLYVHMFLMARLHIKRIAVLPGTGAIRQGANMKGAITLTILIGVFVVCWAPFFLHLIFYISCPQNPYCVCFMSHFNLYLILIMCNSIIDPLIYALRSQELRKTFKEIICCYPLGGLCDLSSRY

[6] = Trypanosoma cruzi growth suppression in host cells – NIH3T3 host cells, beta-gal luminescence, confirmation (AID 2044); assay type: functional, cell-based;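 further: intracellular parasites grown in NIH/3T3 mouse fibroblasts as host cells; luminescent beta-galactosidase reporter signal from transgenic T. cruzi replicating inside host cells; inhibitors lower the luminescence signal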
[7] = NIH3T3 cell viability loss – ATP luminescence, mouse fibroblasts, counter-screen, dose response (AID 2010); assay type: functional, cell-based;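 further: cells exposed to compound for about 90 hours before reading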
[8] = target: T1, Ubiquitin-conjugating enzyme E2 N (Homo sapiens, UniProt P61088); assay type: functional;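 further: Dose-response confirmation in a TR-FRET assay detecting UBC13-driven polyubiquitin chain formation, inhibition measured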
T1 sequence (P61088 whole entry): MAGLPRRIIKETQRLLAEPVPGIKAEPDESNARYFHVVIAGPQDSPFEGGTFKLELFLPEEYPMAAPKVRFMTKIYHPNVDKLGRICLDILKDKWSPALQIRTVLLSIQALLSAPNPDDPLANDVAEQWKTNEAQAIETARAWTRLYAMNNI

[9] = target: T2, DNA repair protein RAD52 homolog (Homo sapiens, UniProt P43351); assay type: functional, biochemical
T2 sequence (P43351 whole entry): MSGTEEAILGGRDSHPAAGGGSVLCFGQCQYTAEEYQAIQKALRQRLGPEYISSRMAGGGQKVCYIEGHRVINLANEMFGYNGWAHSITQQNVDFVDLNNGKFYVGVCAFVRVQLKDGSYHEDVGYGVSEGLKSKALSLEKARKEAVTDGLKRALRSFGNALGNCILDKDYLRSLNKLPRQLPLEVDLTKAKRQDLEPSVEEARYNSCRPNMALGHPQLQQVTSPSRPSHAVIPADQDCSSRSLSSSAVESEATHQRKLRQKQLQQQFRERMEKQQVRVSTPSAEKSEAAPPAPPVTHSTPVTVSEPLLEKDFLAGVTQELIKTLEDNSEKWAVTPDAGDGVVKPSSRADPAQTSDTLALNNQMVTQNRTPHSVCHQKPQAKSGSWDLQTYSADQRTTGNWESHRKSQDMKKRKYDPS

[10] = target: T3, Sentrin-specific protease 8 (Homo sapiens, UniProt Q96LD8); assay: inhibition of human SENP8 cleavage activity – biochemical, luminescence, SAR follow-up (AID 504501); assay type: functional
T3 sequence (Q96LD8 whole entry): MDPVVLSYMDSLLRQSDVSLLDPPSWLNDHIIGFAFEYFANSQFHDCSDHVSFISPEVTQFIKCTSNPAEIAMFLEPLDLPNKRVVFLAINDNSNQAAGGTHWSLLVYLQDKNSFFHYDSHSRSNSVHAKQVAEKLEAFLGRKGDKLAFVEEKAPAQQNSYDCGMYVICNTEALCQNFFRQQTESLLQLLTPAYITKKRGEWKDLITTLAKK

[11] = target: T4, Caspase-3 (Homo sapiens, UniProt P42574); assay: SAR Analysis of small molecule inhibitors of Sentrin-specific proteases (SENPs) using a Caspase-3 Selectivity assay. [Related pubchem assays (depositor defined):AID2540, AID2599, AID434973, AID489001]; assay type: functional
T4 sequence (P42574 whole entry): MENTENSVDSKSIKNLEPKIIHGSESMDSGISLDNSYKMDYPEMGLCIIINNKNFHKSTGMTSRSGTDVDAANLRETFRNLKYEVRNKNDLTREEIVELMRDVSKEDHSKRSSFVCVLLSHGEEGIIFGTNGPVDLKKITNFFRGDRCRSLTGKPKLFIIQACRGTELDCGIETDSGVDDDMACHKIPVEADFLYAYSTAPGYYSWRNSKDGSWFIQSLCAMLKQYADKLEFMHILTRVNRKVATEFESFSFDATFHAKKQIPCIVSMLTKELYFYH

[12] = target: T5, Sentrin-specific protease 6 (Homo sapiens, UniProt Q9GZR1); assay: SAR Analysis of small molecule inhibitors of Sentrin-specific protease 6 (SENP6) using a Luminescent assay. [Related pubchem assays (depositor defined):AID2582, AID2599]; assay type: functional
T5 sequence (Q9GZR1 whole entry): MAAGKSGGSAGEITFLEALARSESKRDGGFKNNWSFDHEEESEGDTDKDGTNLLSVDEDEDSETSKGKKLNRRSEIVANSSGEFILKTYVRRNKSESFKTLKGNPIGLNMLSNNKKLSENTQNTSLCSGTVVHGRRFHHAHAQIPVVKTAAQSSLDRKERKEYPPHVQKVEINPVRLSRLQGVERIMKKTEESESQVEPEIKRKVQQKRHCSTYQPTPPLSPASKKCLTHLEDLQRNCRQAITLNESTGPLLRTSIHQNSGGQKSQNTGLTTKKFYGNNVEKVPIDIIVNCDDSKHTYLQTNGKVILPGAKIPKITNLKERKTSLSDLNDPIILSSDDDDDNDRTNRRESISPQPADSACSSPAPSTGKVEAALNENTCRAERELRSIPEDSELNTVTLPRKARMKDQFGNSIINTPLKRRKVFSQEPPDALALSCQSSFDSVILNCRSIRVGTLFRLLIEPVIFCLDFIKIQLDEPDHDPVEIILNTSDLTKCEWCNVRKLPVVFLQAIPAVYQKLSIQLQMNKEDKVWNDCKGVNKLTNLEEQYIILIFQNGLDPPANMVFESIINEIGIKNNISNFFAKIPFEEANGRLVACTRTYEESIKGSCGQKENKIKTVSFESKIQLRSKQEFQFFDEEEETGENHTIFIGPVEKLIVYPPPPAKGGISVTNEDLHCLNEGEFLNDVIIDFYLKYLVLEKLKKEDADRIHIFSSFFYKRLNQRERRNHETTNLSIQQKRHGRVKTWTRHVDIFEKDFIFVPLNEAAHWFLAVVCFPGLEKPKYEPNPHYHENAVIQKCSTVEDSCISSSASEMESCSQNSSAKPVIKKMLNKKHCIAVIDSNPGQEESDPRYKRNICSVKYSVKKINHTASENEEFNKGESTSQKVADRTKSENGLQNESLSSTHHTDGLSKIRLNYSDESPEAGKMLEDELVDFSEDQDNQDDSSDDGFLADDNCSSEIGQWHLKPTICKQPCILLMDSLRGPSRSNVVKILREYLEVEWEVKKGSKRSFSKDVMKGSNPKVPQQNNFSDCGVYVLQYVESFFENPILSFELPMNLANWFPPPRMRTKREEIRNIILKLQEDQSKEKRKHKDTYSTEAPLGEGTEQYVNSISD

[13] = target: T6, Sentrin-specific protease 7 (Homo sapiens, UniProt Q9BQF6); assay: inhibition of human SENP7 cleavage activity – biochemical, luminescence, SAR follow-up (AID 504497); assay type: functional
T6 sequence (Q9BQF6 whole entry): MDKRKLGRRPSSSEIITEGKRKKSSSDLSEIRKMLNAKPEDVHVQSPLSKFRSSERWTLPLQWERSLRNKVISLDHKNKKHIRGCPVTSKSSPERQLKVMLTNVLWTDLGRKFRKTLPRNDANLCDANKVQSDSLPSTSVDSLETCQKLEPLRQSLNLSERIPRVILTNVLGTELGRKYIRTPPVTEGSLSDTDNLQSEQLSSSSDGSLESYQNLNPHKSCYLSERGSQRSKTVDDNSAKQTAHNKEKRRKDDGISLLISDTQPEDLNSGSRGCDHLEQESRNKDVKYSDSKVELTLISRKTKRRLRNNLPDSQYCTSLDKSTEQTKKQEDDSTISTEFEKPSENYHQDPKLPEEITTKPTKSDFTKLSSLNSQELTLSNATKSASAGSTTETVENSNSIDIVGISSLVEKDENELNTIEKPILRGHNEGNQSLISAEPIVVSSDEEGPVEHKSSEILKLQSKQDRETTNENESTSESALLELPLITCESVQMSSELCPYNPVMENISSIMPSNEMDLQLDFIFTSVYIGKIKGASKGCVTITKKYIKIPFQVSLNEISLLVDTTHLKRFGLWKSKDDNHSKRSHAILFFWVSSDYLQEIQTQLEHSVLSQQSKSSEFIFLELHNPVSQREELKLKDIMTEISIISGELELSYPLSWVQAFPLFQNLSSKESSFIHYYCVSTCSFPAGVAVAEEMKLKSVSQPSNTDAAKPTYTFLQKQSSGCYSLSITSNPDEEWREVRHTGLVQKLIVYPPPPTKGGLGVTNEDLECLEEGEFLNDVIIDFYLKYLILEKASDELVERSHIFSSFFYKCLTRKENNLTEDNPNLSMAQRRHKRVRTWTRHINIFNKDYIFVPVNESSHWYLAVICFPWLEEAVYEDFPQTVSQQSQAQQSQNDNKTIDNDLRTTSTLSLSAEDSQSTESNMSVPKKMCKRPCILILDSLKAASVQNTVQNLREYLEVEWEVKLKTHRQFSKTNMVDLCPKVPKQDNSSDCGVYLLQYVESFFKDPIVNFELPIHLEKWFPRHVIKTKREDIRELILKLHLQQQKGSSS

[14] = viability of uninfected HEp-2 cells – cell-based, HTS, cytotoxicity control for RSV inhibitor project, dose response (AID 2410); assay type: functional; settings: human respiratory syncytial virus
[15] = target: T4, Caspase-3; assay type: functional
[16] = target: T6, Sentrin-specific protease 7; assay type: functional
[17] = target: T5, Sentrin-specific protease 6; assay type: functional
[18] = target: T3, Sentrin-specific protease 8; assay type: functional
[19] = blockers of HIV-1 envelope-mediated cell-cell fusion – cherry-pick, dose response (AID 652057); assay type: functional, cell-based
[20] = viability loss in CEM21 cells – cell-based, CellTiter-Glo luminescence, cherry-picked, cytotoxicity control for viral fusion inhibitor project, dose response (AID 652042); assay type: functional;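 further: potency for signal decrease meaning cytotoxicity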
[21] = blockers of HIV-1 ZM109 envelope-driven cell-cell fusion – HeLa effector, CEM target cells, luciferase, cherry-pick, dose response (AID 652058); assay type: functional, cell-based;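 further: luciferase signal from HIV-1 Env mediated cell-cell fusion of effector and target cells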
[22] = off-target signal loss in HeLa-CEM21 co-culture – HeLa F-luc CTL cells, cherry-picked, counter-screen for HIV-1 Env fusion inhibitor project, dose response (AID 652040); assay type: functional, cell-based;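 further: potency for signal decrease marking cytotoxic or nonspecific inhibition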
[23] = HIV-1 AD8 envelope cell-cell fusion blockers – cherry-pick, dose response (AID 652062); assay type: functional, cell-based;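 further: luciferase signal from cell-cell fusion driven by HIV-1 clade B AD8 Env; potency is for inhibitors of fusion seen as a drop in luminescence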

Row | SMILES | GI50 [1] | GI50 [2] | GI50 [3] | IC50 [10] | IC50 [11] | IC50 [12] | IC50 [13] | also measured
1 | CSCSCC(CO)NC(=O)/C(C)=C\c1c(C)[nH]c(=O)[nH]c1=O (configuration not stated) | > 250 µM (inactive) | > 250 µM (inactive) | > 250 µM (inactive) | – | – | – | – | –
2 | C/C(=C\c1ccccc1)C(=O)CCN1CCOCC1 | 5.73 µM (inactive) | 17.9 µM (inactive) | 4.78 µM (inactive) | – | – | – | – | –
3 | COc1cccc(-c2cnc3c(NC=O)cc(-c4cc(OC)c(OC)c(OC)c4)cn23)c1 | – | – | – | – | – | – | – | IC50 [4]: > 79 µM (inactive); EC50 [5]: > 89.2 µM (inactive)
4 | N=C(N)Nc1nc(-c2ccccc2)c2cc(Cl)ccc2n1 | – | – | – | – | – | – | – | EC50 [6]: 0.382 µM (active); EC50 [7]: > 60 µM (not active); IC50 [8]: > 20 µM (inactive); EC50 [5]: > 89.2 µM (inactive); AC50 [9]: 6.61 µM (active)
5 | Fc1cc(C(F)(F)F)ccc1-c1nc(/C=C/c2ccccc2)no1 | – | – | – | > 99 µM (inactive) | > 99 µM (inactive) | > 99 µM (inactive) | > 99 µM (inactive) | –
6 | CCc1ccc2oc(-c3ccc(NC(C)=O)cc3)nc2c1 | – | – | – | 5.46 µM (active) | 7.01 µM (active) | 5.12 µM (active) | 2.09 µM (active) | CC50 [14]: 22.2 µM (active); IC50 [15]: 12.4 µM (active); IC50 [16]: 2.89 µM (active); IC50 [17]: 8.05 µM (active); IC50 [18]: 13.2 µM (active)
7 | O=C(/C=C/c1ccc(OC2CSC2)cc1)c1ccc(Cl)cc1 | – | – | – | > 99 µM (inactive) | > 99 µM (inactive) | > 99 µM (inactive) | > 99 µM (inactive) | –
8 | O=C(O)CC(NC(=O)CP(=O)(O)O)C(=O)O (configuration not stated) | 77.1 µM (inactive) | 5.32 µM (inactive) | 127 µM (inactive) | – | – | – | – | –
9 | CCOc1cc(CNCCc2c[nH]c3ccccc23)cc(Cl)c1OCC | – | – | – | – | – | – | – | CC50 [14]: 14.9 µM (active); EC50 [5]: > 89.2 µM (inactive); AC50 [19]: 4.29 µM (active); AC50 [20]: 26.6 µM (active); AC50 [21]: 2.31 µM (active); AC50 [22]: 6.11 µM (active); AC50 [23]: 27.2 µM (active)
10 | CC(=O)Oc1ccc(C2COc3cc(OC(C)=O)c(OC(C)=O)cc3C2)cc1 (configuration not stated) | 5.42 µM (inactive) | 13 µM (inactive) | 6 µM (inactive) | – | – | – | – | –
11 | O=C(Nc1nc2ccc(NC(=O)c3n[nH]c4c3CCc3ccccc3-4)cc2s1)c1ccccc1 | – | – | – | > 99 µM (inactive) | > 99 µM (inactive) | > 99 µM (inactive) | > 99 µM (inactive) | –
